Results on 21 molecules are retold here after patent US11852971B2, “Compound, photosensitive resin composition including the same, photosensitive resin layer, color filter and display device” (SAMSUNG SDI CO., LTD., priority 2019, dated 2023).

Series [1] in a line: Solubility measurement in dilution solvent (PGMEA). Type of series: physicochemical. The note with it: PGMEA added to 0.5 g compound, stirred 100 rpm, one hour, 25° C. As for the experimental part:
Evaluation 2: Solubility Measurement Solubility of the compounds according to Synthesis Examples 11 to 21 and Comparative Synthesis Examples 1 to 6 were measured by adding a dilution solvent (PGMEA) to 0.5 g of each compound and respectively stirring the mixtures (MIXROTAR VMR-5, Iuchi Seiei Dou Co.) at 100 rpm for one hour at 25° C., and the results are shown in Table 2. Solubility Evaluation Criteria Greater than or equal to 10 wt % of a compound (a solute) based on a total amount of a diluting solvent was dissolved: ∘ Less than 10 wt % of a compound (a solute) based on a total amount of a diluting solvent was dissolved: X

Series [2] in a line: Measurement of the shortest wavelength of full width at half maximum (FWHM) with respect to maximum absorption wavelength (absorption spectrum). Type of series: physicochemical. The note with it: 0.005 wt % in PGMEA; UV-1800. The source says: The shortest wavelength of the full width at half maximum (FWHM) with respect to the maximum absorption wavelengths denotes a wavelength having the smallest value (a) among the energy widths (Δλ) of the maximum absorption wavelength (b) in the absorption spectrum of a particular phthalocyanine compound. (Refer to the FIGURE)
Evaluation 1: Measurement of the Shortest Wavelength of Full Width at Half Maximum (FWHM) with respect to Maximum Absorption Wavelength
The compounds according to Synthesis Example 1 to Synthesis Example 21 and Comparative Synthesis Example 1 to Comparative Synthesis Example 6 were prepared at a concentration of 0.005 wt % using a diluting solvent (PGMEA). Absorption spectra were obtained for each of the phthalocyanine compounds according to Synthesis Example 1 to […] and Comparative Synthesis Example 1 to Comparative Synthesis Example 6, and the results are shown in Table 1 (UV-1800, SHTMADZU).

On to `Cc1cccc(C)c1Oc1c(Cl)c(Cl)c2c(c1Cl)/C1=N/c3c4c(Cl)c(Oc5c(C)cccc5C)c(Cl)c(Cl)c4c4[n]3[Zn][n]3/c(c5ccccc5/c3=N/C2=N1)=N\C1=NC(=N\4)/c2c(Cl)c(Cl)c(Cl)c(Cl)c21` [Synthesis Example 6], for which the Solubility result in series [1] is “○”. Besides, the “The shortest wavelength (nm) of full width at half maximum (FWHM) with respect to maximum absorption wavelength” value (from here on “The shortest wavelength (nm)”) in series [2] worked out at 618 nm.
As to `CCC(C)c1ccccc1Oc1c(Cl)c(Cl)c2c(c1Cl)C1=NC/2=N\c2c3c(Cl)c(Cl)c(Oc4ccccc4C(C)CC)c(Cl)c3c3[n]2[Zn][n]2/c(c4c(Cl)c(Cl)c(Oc5ccccc5C(C)CC)c(Cl)c4/c2=N/C2=NC(=N\3)/c3c(Cl)c(Oc4ccccc4C(C)CC)c(Cl)c(Cl)c32)=N\1` (stereo not drawn) [Comparative Synthesis Example 1, reference compound], in series [1], the Solubility result is given as “X (Less than 10 wt % of a compound (a solute) based on a total amount of a diluting solvent was dissolved)”. The “The shortest wavelength (nm)” value in series [2] came out at 628 nm.
In the same order, the values of `COc1ccc(Oc2c(Cl)c(Cl)c3c(c2Cl)C2=NC/3=N\c3c4c(Cl)c(Oc5ccc(OC)cc5OC)c(Cl)c(Cl)c4c4[n]3[Zn][n]3/c(c5c(Cl)c(Cl)c(Oc6ccc(OC)cc6OC)c(Cl)c5/c3=N/C3=NC(=N\4)/c4c(Cl)c(Oc5ccc(OC)cc5OC)c(Cl)c(Cl)c43)=N\2)c(OC)c1` [Comparative Synthesis Example 3, reference compound] are “X (Less than 10 wt % of a compound (a solute) based on a total amount of a diluting solvent was dissolved)” and 623 nm.
`CC(C)(C)c1ccccc1Oc1c(Cl)c(Cl)c2c(c1Cl)/C1=N/c3c4c(Cl)c(Oc5ccccc5C(C)(C)C)c(Cl)c(Cl)c4c4[n]3[Zn][n]3/c(c5ccccc5/c3=N/C2=N1)=N\C1=NC(=N\4)/c2c(Cl)c(Cl)c(Cl)c(Cl)c21` [Synthesis Example 3]: the Solubility result in series [1] is “○”. Besides, the “The shortest wavelength (nm)” value in series [2] is 618 nm.
In the same order, the values of `CC(C)(C)c1ccccc1Oc1c(Cl)c(Cl)c2c(c1Cl)/C1=N/c3c4c(Cl)c(Oc5ccccc5C(C)(C)C)c(Cl)c(Cl)c4c4[n]3[Zn][n]3/c(c5cc(Cl)ccc5/c3=N/C2=N1)=N\C1=NC(=N\4)/c2c(Cl)c(Cl)c(Cl)c(Cl)c21` [Comparative Synthesis Example 6, reference compound] are “X (Less than 10 wt % of a compound (a solute) based on a total amount of a diluting solvent was dissolved)” and 623 nm.
On to `CC(C)(C)COc1c(Cl)c(Cl)c2c(c1Cl)/C1=N/c3c4c(Cl)c(Cl)c(Cl)c(Cl)c4c4[n]3[Zn][n]3/c(c5ccccc5/c3=N/C2=N1)=N\C1=NC(=N\4)/c2c(Cl)c(Cl)c(Cl)c(Cl)c21` [Synthesis Example 13], for which the Solubility result in series [1] is “○”. Also, in series [2], the “The shortest wavelength (nm)” value worked out at 618 nm.
In the same order, the values of `CC(C)COc1c(Cl)c(Cl)c2c(c1Cl)/C1=N/c3c4c(Cl)c(Cl)c(Cl)c(Cl)c4c4[n]3[Zn][n]3/c(c5ccccc5/c3=N/C2=N1)=N\C1=NC(=N\4)/c2c(Cl)c(Cl)c(Cl)c(Cl)c21` [Synthesis Example 19] are “○” and 618 nm.
In the same order, the values of `CC(C)(C)COc1c(Cl)c(Cl)c2c(c1Cl)/C1=N/c3c4c(Cl)c(OCC(C)(C)C)c(Cl)c(Cl)c4c4[n]3[Zn][n]3/c(c5ccccc5/c3=N/C2=N1)=N\C1=NC(=N\4)/c2ccccc21` [Synthesis Example 14] are “○” and 611 nm.
In the same order, the values of `Cc1ccc(Oc2c(Cl)c(Cl)c3c(c2Cl)/C2=N/c4c5c(Cl)c(Oc6ccc(C)cc6C(C)(C)C)c(Cl)c(Cl)c5c5[n]4[Zn][n]4/c(c6ccccc6/c4=N/C3=N2)=N\C2=NC(=N\5)/c3c(Cl)c(Cl)c(Cl)c(Cl)c32)c(C(C)(C)C)c1` [Synthesis Example 10] are “○” and 616 nm.
On to `CC(C)(C)c1ccc(Oc2c(Cl)c(Cl)c3c(c2Cl)/C2=N/c4c5c(Cl)c(Cl)c(Cl)c(Cl)c5c5[n]4[Zn][n]4/c(c6ccccc6/c4=N/C3=N2)=N\C2=NC(=N\5)/c3c(Cl)c(Cl)c(Cl)c(Cl)c32)c(C(C)(C)C)c1` [Synthesis Example 9], for which the Solubility result in series [1] is recorded as “○”. For the same molecule, the “The shortest wavelength (nm)” value in series [2] was found to be 618 nm.
Consider `CC(C)(C)c1ccc(Oc2c(Cl)c(Cl)c3c(c2Cl)/C2=N/c4c5c(Cl)c(Oc6ccc(C(C)(C)C)cc6C(C)(C)C)c(Cl)c(Cl)c5c5[n]4[Zn][n]4/c(c6ccccc6/c4=N/C3=N2)=N\C2=NC(=N\5)/c3c(Cl)c(Cl)c(Cl)c(Cl)c32)c(C(C)(C)C)c1` [Synthesis Example 8], for which the Solubility entry in series [1] is “○”. For the same molecule, the “The shortest wavelength (nm)” value in series [2] is 616 nm.
In the same order, the values of `CC(C)c1ccccc1Oc1c(Cl)c(Cl)c2c(c1Cl)/C1=N/c3c4c(Cl)c(Oc5ccccc5C(C)C)c(Cl)c(Cl)c4c4[n]3[Zn][n]3/c(c5ccccc5/c3=N/C2=N1)=N\C1=NC(=N\4)/c2c(Cl)c(Cl)c(Cl)c(Cl)c21` [Synthesis Example 1] are “○” and 616 nm.
Regarding `CC(C)COc1c(Cl)c(Cl)c2c(c1Cl)/C1=N/c3c4c(Cl)c(OCC(C)C)c(Cl)c(Cl)c4c4[n]3[Zn][n]3/c(c5ccccc5/c3=N/C2=N1)=N\C1=NC(=N\4)/c2ccccc21` [Synthesis Example 20], in series [1], the Solubility entry was “○”. Besides, the “The shortest wavelength (nm)” value in series [2] is reported as 611 nm.
In the same order, the values of `CC(C)(C)c1ccccc1Oc1c(Cl)c(Cl)c2c(c1Cl)/C1=N/c3c4c(Cl)c(Oc5ccccc5C(C)(C)C)c(Cl)c(Cl)c4c4[n]3[Zn][n]3/c(c5cc(Cl)c(Cl)cc5/c3=N/C2=N1)=N\C1=NC(=N\4)/c2c(Cl)c(Cl)c(Cl)c(Cl)c21` [Comparative Synthesis Example 5, reference compound] are “X (Less than 10 wt % of a compound (a solute) based on a total amount of a diluting solvent was dissolved)” and 625 nm.
In the same order, the values of `CC(C)CCOc1c(Cl)c(Cl)c2c(c1Cl)/C1=N/c3c4c(Cl)c(Cl)c(Cl)c(Cl)c4c4[n]3[Zn][n]3/c(c5ccccc5/c3=N/C2=N1)=N\C1=NC(=N\4)/c2c(Cl)c(Cl)c(Cl)c(Cl)c21` [Synthesis Example 16] are “○” and 618 nm.
As to `COc1ccc(Oc2c(Cl)c(Cl)c3c4[n]5c(c3c2Cl)/N=C2N=C(/N=c3/c6c(Cl)c(Cl)c(Cl)c(Cl)c6/c([n]3[Zn]5)=N/C3=NC(=N\4)/c4c(Cl)c(Cl)c(Cl)c(Cl)c43)c3c(Cl)c(Cl)c(Cl)c(Cl)c3\2)c(OC)c1` [Comparative Synthesis Example 4, reference compound], in series [1], the Solubility entry is “X (Less than 10 wt % of a compound (a solute) based on a total amount of a diluting solvent was dissolved)”. In series [2], the “The shortest wavelength (nm)” value is reported as 626 nm.
Regarding `CC(C)COc1c(Cl)c(Cl)c2c(c1Cl)/C1=N/c3c4c(Cl)c(OCC(C)C)c(Cl)c(Cl)c4c4[n]3[Zn][n]3/c(c5ccccc5/c3=N/C2=N1)=N\C1=NC(=N\4)/c2c(Cl)c(Cl)c(Cl)c(Cl)c21` [Synthesis Example 18], the Solubility entry in series [1] was “○”. For the same molecule, the “The shortest wavelength (nm)” value in series [2] is reported as 617 nm.
Take `CC(C)CCOc1c(Cl)c(Cl)c2c(c1Cl)/C1=N/c3c4c(Cl)c(OCCC(C)C)c(Cl)c(Cl)c4c4[n]3[Zn][n]3/c(c5ccccc5/c3=N/C2=N1)=N\C1=NC(=N\4)/c2ccccc21` [Synthesis Example 17]: the Solubility entry in series [1] is on record as “○”. Further, the “The shortest wavelength (nm)” value in series [2] turned out to be 611 nm.
`CC(C)(C)c1ccc(Oc2c(Cl)c(Cl)c3c(c2Cl)/C2=N/c4c5ccccc5c5[n]4[Zn][n]4/c(c6ccccc6/c4=N/C3=N2)=N\C2=NC(=N\5)/c3ccccc32)c(C(C)(C)C)c1` [Synthesis Example 21]: the Solubility result in series [1] is reported as “X (Less than 10 wt % of a compound (a solute) based on a total amount of a diluting solvent was dissolved)”. Moreover, the “The shortest wavelength (nm)” value in series [2] turned out to be 608 nm.
In the same order, the values of `CC(C)CCOc1c(Cl)c(Cl)c2c(c1Cl)/C1=N/c3c4c(Cl)c(OCCC(C)C)c(Cl)c(Cl)c4c4[n]3[Zn][n]3/c(c5ccccc5/c3=N/C2=N1)=N\C1=NC(=N\4)/c2c(Cl)c(Cl)c(Cl)c(Cl)c21` [Synthesis Example 15] are “○” and 617 nm.
In the same order, the values of `Cc1ccccc1Oc1c(Cl)c(Cl)c2c(c1Cl)/C1=N/c3c4c(Cl)c(Oc5ccccc5C)c(Cl)c(Cl)c4c4[n]3[Zn][n]3/c(c5ccccc5/c3=N/C2=N1)=N\C1=NC(=N\4)/c2c(Cl)c(Cl)c(Cl)c(Cl)c21` [Synthesis Example 5] are “○” and 618 nm.
